Laboratory results as given in paper PMC7253423, “Quassinoid analogs with enhanced efficacy for treatment of hematologic malignancies target the PI3Kγ isoform” (Communications Biology, 2020).
Read-outs that look alike come from different tables or passages of the source.

What was measured:
[1] = Cytotoxicity, cell viability assay in normal cells; assay type: cell-based, human; settings: human, PBMC, fraction of 0 μM control, read-out: relative cell viability (Fig 6a), replicates; for viability at 0.000244141 μM: Con. 0.000244141 μM; for viability at 0.00390625 μM: Con. 0.00390625 μM; for viability at 0.015625 μM: Con. 0.015625 μM; for viability at 0.0625 μM: Con. 0.0625 μM; for viability at 1 μM: Con. 1 μM
Excerpt: (§1) Human peripheral blood mononuclear cells (PBMCs), normal T-cells and B-cells were provided by the University of Pennsylvania Human Immunology Core (HIC), and Patient-derived xenografts (PDXs) were obtained from Fox Chase Cancer Center (FCCC). These samples were from different unidentified and healthy donors with written, informed consent. All the procedures were approved by the Institutional Review Board (IRB) and conducted according to the declarations of Helsinki protocols.
(§2) 5000 cells as indicated were cultured in 96-well plate with 100 μl of media. […] After treatment, the cells were incubated with 100 μl buffer for 10 min at room temperature following the instructions of CellTiter-Glo kit (Promega, Madison, WI). Luminescence was detected using a multi-mode reader Cytation 5 (BioTek, Winooski, VT). […] Two independent experiments done in duplicates were performed.

MOLM14 cells = test: Cell viability assay (CellTiter-Glo luminescence); assay type: cell-based; settings: Homo sapiens; for viability at 0.00244141 µM: MOLM-14, read-out: relative cell viability (Fig 6e), replicates, MOLM14, Con. 0.00244141 μM, fraction of 0 μM control; for viability at 0.0390625 µM: MOLM-14, read-out: relative cell viability (Fig 6e), replicates, MOLM14, Con. 0.0390625 μM, fraction of 0 μM control; for viability at 0.15625 µM: MOLM-14, read-out: relative cell viability (Fig 6e), replicates, MOLM14, Con. 0.15625 μM, fraction of 0 μM control; for viability at 0.625 µM: MOLM-14, read-out: relative cell viability (Fig 6e), replicates, MOLM14, Con. 0.625 μM, fraction of 0 μM control; for viability at 10 µM: MOLM-14, read-out: relative cell viability (Fig 6e), replicates, MOLM14, Con. 10 μM, fraction of 0 μM control; for viability at […]: MOLM-14, read-out: relative cell viability (Fig 6e), replicates, MOLM14, Con. […], fraction of 0 μM control
Procedure: as §2

[2] = Cytotoxicity, cell viability assay in normal cells; assay type: cell-based; settings: human, fraction of 0 μM control; for viability at 0.000244141 μM: Con. 0.000244141 μM; for viability at 0.00390625 μM: Con. 0.00390625 μM; for viability at 0.015625 μM: Con. 0.015625 μM; for viability at 0.0625 μM: Con. 0.0625 μM; for viability at 1 μM: Con. 1 μM; for viability at […]: Con. […]
Excerpt: as §1, §2

SU-DHL-4 cells = test: Cell viability assay (CellTiter-Glo luminescence); assay type: cell-based, human; settings: Homo sapiens, SU-DHL-4, 144 h; for viability at 0.00244141 µM: read-out: relative cell viability (Fig 6d), replicates, SU-DHL-4, Con. 0.00244141 μM, fraction of 0 μM control; for viability at 0.0390625 µM: read-out: relative cell viability (Fig 6d), replicates, SU-DHL-4, Con. 0.0390625 μM, fraction of 0 μM control; for viability at 0.15625 µM: read-out: relative cell viability (Fig 6d), replicates, SU-DHL-4, Con. 0.15625 μM, fraction of 0 μM control; for viability at 0.625 µM: read-out: relative cell viability (Fig 6d), replicates, SU-DHL-4, Con. 0.625 μM, fraction of 0 μM control; for viability at 10 µM: read-out: relative cell viability (Fig 6d), replicates, SU-DHL-4, Con. 10 μM, fraction of 0 μM control
Procedure: as §2

Raji cells = test: Cell viability assay (CellTiter-Glo luminescence); assay type: cell-based, human; settings: Homo sapiens; for viability at 0.00244141 µM: read-out: relative cell viability (Fig 6f), replicates, Raji, Con. 0.00244141 μM, fraction of 0 μM control; for viability at 0.0390625 µM: read-out: relative cell viability (Fig 6f), replicates, Raji, Con. 0.0390625 μM, fraction of 0 μM control; for viability at 0.15625 µM: read-out: relative cell viability (Fig 6f), replicates, Raji, Con. 0.15625 μM, fraction of 0 μM control; for viability at 0.625 µM: read-out: relative cell viability (Fig 6f), replicates, Raji, Con. 0.625 μM, fraction of 0 μM control; for viability at 10 µM: read-out: relative cell viability (Fig 6f), replicates, Raji, Con. 10 μM, fraction of 0 μM control; for viability at […]: read-out: relative cell viability (Fig 6f), replicates, Raji, Con. […], fraction of 0 μM control
Procedure: as §2

[3] = normal B-cells from healthy donors, B-cells, read-out: relative cell viability (Fig 6c), replicates
[4] = normal T-cells from healthy donors, T-cells, read-out: relative cell viability (Fig 6b), replicates

| Structure (SMILES) | viability at 0.00390625 μM [1] [%] | viability at 0.015625 μM [1] [%] | viability at 0.0625 μM [1] [%] | viability at 1 μM [1] [%] | viability at 0.625 µM (MOLM14 cells) [%] | viability at 10 µM (MOLM14 cells) [%] | viability at 0.000244141 μM [2, 3] [%] | viability at 0.00390625 μM [2, 3] [%] | viability at 0.015625 μM [2, 3] [%] | viability at 0.0625 μM [2, 3] [%] | viability at 1 μM [2, 3] [%] | viability at 0.000244141 μM [2, 4] [%] | viability at 0.00390625 μM [2, 4] [%] | viability at 0.015625 μM [2, 4] [%] | viability at 1 μM [2, 4] [%] | viability at 0.15625 µM (SU-DHL-4 cells) [%] | viability at 0.625 µM (SU-DHL-4 cells) [%] | viability at 10 µM (SU-DHL-4 cells) [%] | viability at 0.00244141 µM (Raji cells) [%] | viability at 0.15625 µM (Raji cells) [%] | further results |
| --- | --- | --- | --- | --- | --- | --- | --- | --- | --- | --- | --- | --- | --- | --- | --- | --- | --- | --- | --- | --- | --- |
| COc1c(OCCCN2CCOCC2)ccc2c1N=C(NC(=O)c1cnc(N)nc1)N1CCN=C21 [Copanlisib] | 106 | 92.8 | 73 | 61.4 | 18.1 | 4.25 | 90.1 | 95.7 | 91.4 | 79.9 | 52.6 | 95.3 | 102 | 94.4 | 79.9 | 42.6 | 12.3 | 5.12 | 94.7 | 102 | viability at 0.000244141 μM [1]: 104%; viability at 0.00244141 µM (MOLM14 cells): 89.1%; viability at 0.0390625 µM (MOLM14 cells): 59%; viability at 0.15625 µM (MOLM14 cells): 58.4%; viability at 0.0625 μM [2, 4]: 107%; viability at 0.00244141 µM (SU-DHL-4 cells): 122%; viability at 0.0390625 µM (SU-DHL-4 cells): 69%; viability at 0.0390625 µM (Raji cells): 91.7%; viability at 0.625 µM (Raji cells): 67.9%; viability at 10 µM (Raji cells): 7.75% |
| C[C@H](Nc1ncnc2nc[nH]c12)c1cc2cccc(Cl)c2c(=O)n1-c1ccccc1 [Duvelisib] | 94.6 | 101 | 92.6 | 80.3 | 125 | 24.1 | 94.3 | 103 | 80.4 | 104 | 72.7 | 108 | 100 | 99.3 | 93.2 | 85.8 | 75.1 | 27.4 | 94.9 | 94.1 | viability at 0.000244141 μM [1]: 103%; viability at 0.0390625 µM (MOLM14 cells): 122%; viability at 0.15625 µM (MOLM14 cells): 109%; viability at […] (MOLM14 cells): 106%; viability at 0.0625 μM [2, 4]: 102%; viability at […] [2, 4]: 103%; viability at 0.00244141 µM (SU-DHL-4 cells): 103%; viability at 0.0390625 µM (SU-DHL-4 cells): 99.8%; viability at 0.0390625 µM (Raji cells): 112%; viability at 0.625 µM (Raji cells): 99.1%; viability at 10 µM (Raji cells): 64.1%; viability at […] (Raji cells): 104% |
| C[C@H](NC(=O)c1c(N)nn2cccnc12)c1cc2cccc(C#Cc3cnn(C)c3)c2c(=O)n1-c1ccccc1 [IPI-549] | 98.8 | 104 | 102 | 99.1 | 93.4 | 23.9 | 107 | – | 118 | 105 | 93.7 | 108 | 107 | 109 | 115 | 115 | 94.2 | 30.8 | 95.4 | 113 | viability at 0.00244141 µM (MOLM14 cells): 121%; viability at […] (MOLM14 cells): 119%; viability at […] [2, 3]: 122%; viability at 0.0625 μM [2, 4]: 83.1%; viability at […] [2, 4]: 109%; viability at 0.00244141 µM (SU-DHL-4 cells): 94.9%; viability at 0.0390625 µM (Raji cells): 108%; viability at 0.625 µM (Raji cells): 122%; viability at 10 µM (Raji cells): 55%; viability at […] (Raji cells): 98.4% |
| CC[C@H](Nc1ncnc2[nH]cnc12)c1nc2cccc(F)c2c(=O)n1-c1ccccc1 [Idelalisib] | 99.7 | 111 | 83.8 | 89.1 | 113 | – | 101 | 103 | 103 | – | 81.2 | 105 | 102 | 98.9 | 98.7 | 99.8 | 87.1 | 33.1 | 111 | 114 | viability at […] (MOLM14 cells): 120%; viability at 0.0390625 µM (SU-DHL-4 cells): 96.2% |
